Values joined by “and” are separate entries in the source; they are usually repeats but may differ in a detail not shown here. Equal entries are not always repeated.
Conditions: Liquid; for viscosity: Vibrating wire viscometry; for mass density: Vibrating tube method

OCCOCCOCCO [triethylene glycol]
Conditions | mass density | viscosity
343.08 K, 67540 kPa | – | 10.64 mPa·s
343.08 K, 67870 kPa | – | 10.63 mPa·s
343.15 K, 100 kPa | 1083.9 kg/m3 | –
343.15 K, 640 kPa | 1084.2 kg/m3 | –
343.15 K, 1120 kPa | 1084.4 kg/m3 | –
343.15 K, 1600 kPa | 1084.7 kg/m3 | –
343.15 K, 2110 kPa | 1084.9 kg/m3 | –
343.15 K, 3040 kPa | 1085.5 kg/m3 | –
343.15 K, 5040 kPa | 1086.6 kg/m3 | –
343.15 K, 6960 kPa | 1087.5 kg/m3 | –
343.15 K, 9920 kPa | 1089 kg/m3 | –
343.15 K, 14810 kPa | 1091.6 kg/m3 | –
343.15 K, 19680 kPa | 1093.9 kg/m3 | –
343.15 K, 24620 kPa | 1096.4 kg/m3 | –
343.15 K, 29580 kPa | 1098.7 kg/m3 | –
343.15 K, 34460 kPa | 1101 kg/m3 | –
343.15 K, 39370 kPa | 1103.3 kg/m3 | –
343.15 K, 44240 kPa | 1105.4 kg/m3 | –
343.15 K, 49160 kPa | 1107.6 kg/m3 | –
343.15 K, 54020 kPa | 1109.7 kg/m3 | –
343.15 K, 58940 kPa | 1111.7 kg/m3 | –
343.15 K, 63890 kPa | 1113.8 kg/m3 | –
343.15 K, 68680 kPa | 1115.7 kg/m3 | –
353.15 K, 100 kPa | 1076 kg/m3 | –
353.15 K, 650 kPa | 1076.3 kg/m3 | –
353.15 K, 1100 kPa | 1076.5 kg/m3 | –
353.15 K, 1550 kPa | 1076.7 kg/m3 | –
353.15 K, 2100 kPa | 1077.1 kg/m3 | –
353.15 K, 3050 kPa | 1077.6 kg/m3 | –
353.15 K, 5040 kPa | 1078.6 kg/m3 | –
353.15 K, 7010 kPa | 1079.8 kg/m3 | –
353.15 K, 9960 kPa | 1081.3 kg/m3 | –
353.15 K, 14810 kPa | 1084 kg/m3 | –
353.15 K, 19780 kPa | 1086.5 kg/m3 | –
353.15 K, 24610 kPa | 1089 kg/m3 | –
353.15 K, 29560 kPa | 1091.9 kg/m3 | –
353.15 K, 34450 kPa | 1093.8 kg/m3 | –
353.15 K, 39370 kPa | 1096.1 kg/m3 | –
353.15 K, 44270 kPa | 1098.4 kg/m3 | –
353.15 K, 49200 kPa | 1100.6 kg/m3 | –
353.15 K, 54090 kPa | 1102.8 kg/m3 | –
353.15 K, 59010 kPa | 1104.9 kg/m3 | –
353.15 K, 63820 kPa | 1107 kg/m3 | –
353.15 K, 68800 kPa | 1109 kg/m3 | –
362.88 K, 190 kPa | – | 4.247 mPa·s [middle of 7 runs]
362.88 K, 1270 kPa | – | 4.27 mPa·s [middle of 8 runs]
362.88 K, 1990 kPa | – | 4.308 mPa·s and 4.283 mPa·s and 4.311 mPa·s
362.88 K, 2000 kPa | – | 4.292 mPa·s [middle of 5 runs]
362.88 K, 4990 kPa | – | 4.388 mPa·s [middle of 4 runs]
362.88 K, 5000 kPa | – | 4.396 mPa·s and 4.394 mPa·s and 4.386 mPa·s
362.88 K, 10010 kPa | – | 4.54 mPa·s and 4.522 mPa·s and 4.512 mPa·s
362.88 K, 10020 kPa | – | 4.524 mPa·s [middle of 4 runs]
362.88 K, 19820 kPa | – | 4.812 mPa·s
362.88 K, 19830 kPa | – | 4.792 mPa·s and 4.786 mPa·s and 4.794 mPa·s
362.88 K, 19840 kPa | – | 4.789 mPa·s
362.88 K, 29760 kPa | – | 5.092 mPa·s
362.88 K, 29770 kPa | – | 5.089 mPa·s
362.88 K, 29780 kPa | – | 5.088 mPa·s
362.88 K, 29790 kPa | – | 5.109 mPa·s
362.88 K, 39030 kPa | – | 5.381 mPa·s
362.88 K, 39050 kPa | – | 5.39 mPa·s
362.88 K, 39060 kPa | – | 5.382 mPa·s
362.88 K, 39070 kPa | – | 5.395 mPa·s
362.88 K, 39330 kPa | – | 5.395 mPa·s
362.88 K, 50130 kPa | – | 5.747 mPa·s
362.88 K, 50260 kPa | – | 5.754 mPa·s
362.88 K, 50300 kPa | – | 5.756 mPa·s
362.88 K, 50380 kPa | – | 5.739 mPa·s
362.88 K, 50430 kPa | – | 5.763 mPa·s
362.88 K, 67370 kPa | – | 6.356 mPa·s
362.88 K, 67660 kPa | – | 6.331 mPa·s
362.88 K, 67980 kPa | – | 6.382 mPa·s
363.15 K, 100 kPa | 1068.1 kg/m3 and 1068 kg/m3 | –
363.15 K, 660 kPa | 1068.4 kg/m3 | –
363.15 K, 1120 kPa | 1068.7 kg/m3 | –
363.15 K, 1560 kPa | 1068.9 kg/m3 | –
363.15 K, 2130 kPa | 1069.2 kg/m3 | –
363.15 K, 3050 kPa | 1069.8 kg/m3 | –
363.15 K, 5090 kPa | 1070.9 kg/m3 | –
363.15 K, 6990 kPa | 1072 kg/m3 | –
363.15 K, 9980 kPa | 1073.7 kg/m3 | –
363.15 K, 14880 kPa | 1076.4 kg/m3 | –
363.15 K, 19680 kPa | 1079 kg/m3 | –
363.15 K, 24720 kPa | 1081.7 kg/m3 | –
363.15 K, 29630 kPa | 1084.2 kg/m3 | –
363.15 K, 34490 kPa | 1086.6 kg/m3 | –
363.15 K, 39430 kPa | 1089 kg/m3 | –
363.15 K, 44200 kPa | 1091.4 kg/m3 | –
363.15 K, 49240 kPa | 1093.7 kg/m3 | –
363.15 K, 54100 kPa | 1095.9 kg/m3 | –
363.15 K, 59010 kPa | 1098.1 kg/m3 | –
363.15 K, 63880 kPa | 1100.2 kg/m3 | –
363.15 K, 68830 kPa | 1102.3 kg/m3 | –
